This is an account of results in US20230338554A1, “GALACTOSYLATED DENDRIMERS FOR TARGETED INTRACELLULAR DELIVERY TO HEPATOCYTES” (The Johns Hopkins University, priority 2020, published 2023).

Some results are limits rather than exact numbers.

Assay [1] has as its system severe acetaminophen poisoning. Description: Gal-D4-NAC treatment in mouse model of severe acetaminophen poisoning. Type of assay: in vivo, C57BL6 mice. As to the method: A model of severe acetaminophen poisoning was established through the administration of 700 mg/kg APAP i.p. to C57BL6 mice (FIG. 12A). There was a high mortality rate, with >90% of mice given APAP overdose dying with 72 hours regardless of treatment with free NAC (FIG. 12B). FIG. 12B represents the survival of healthy sham (black) and saline (red), free NAC (green), and Gal-D4-NAC (blue) treated animals as determined by mass reduction below 80% of the initial animal mass. This model replicates the effects of APAP overdose that result in fulminant liver failure and are considered untreatable with the current clinical NAC regiment. Additionally, to mimic delayed treatment due to late arrival at the hospital, animals eight hours after APAP overdose were also treated as opposed to the pre- and co-treatments with nanoparticles that are typically reported in this model. Both dendrimer and free drug treated animals received 100 mg/kg of NAC, which is […] of the dose that would be administered over 24 hours by i.v. infusion in the clinic.
Next liver necrosis and function were assessed through analysis of images from liver sections isolated at time of death and stained for hematoxylin and eosin. […] After receiving an overdose of APAP, liver structure is essentially destroyed. […]

The next assay has as its target T1, ASGPR (Homo sapiens, UniProt P07306).
T1 sequence (P07306 1-291): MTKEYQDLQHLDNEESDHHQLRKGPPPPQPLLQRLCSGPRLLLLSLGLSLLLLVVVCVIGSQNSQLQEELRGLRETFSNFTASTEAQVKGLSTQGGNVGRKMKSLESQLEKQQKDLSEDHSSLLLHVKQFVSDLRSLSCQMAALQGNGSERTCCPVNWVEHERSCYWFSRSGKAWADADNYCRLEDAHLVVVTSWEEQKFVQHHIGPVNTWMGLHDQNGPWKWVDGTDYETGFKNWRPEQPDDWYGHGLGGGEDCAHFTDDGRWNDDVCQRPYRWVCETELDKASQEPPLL
The settings on record: cited from earlier work.

Turning to `CC(=O)N[C@@H](CS)C(=O)O` [free NAC, N-acetyl cysteine], in assay [1] (700 mg/kg APAP i.p., 72 hours), the mice dying was above 90%. Moreover, the “liver architecture / liver health” value in assay [1] (single i.v. dose 100 mg/kg on a NAC basis) was “unable to have any effect on liver health”.
Turning to `CC(=O)N[C@H]1C(O)O[C@H](CO)[C@H](O)[C@@H]1O` (stereo partly drawn) [N-acetylgalactosamine (GalNAc), N-acetylgalactosamine], on ASGPR, the “monovalent binding affinity to ASGPR” value was “micromolar scale”.
